Where a name gives a salt, the structure may show the parent alone.
Legend:
human FAAH = target: T1, human FAAH (Homo sapiens, UniProt O00519); assay: Assay Method 1: FAAH assay, hydrolysis of 3H-anandamide by homogenate of SK-N-MC cells transfected with human FAAH; format: biochemical; details: human FAAH; T84 or transfected SK-N-MC cell homogenate; 3H-AEA tracer 80 nM; rt 1 h; pH 9; read-out: Assay 1 IC50
T1 construct: expressed in transfected cells
T1 sequence (O00519 1-579): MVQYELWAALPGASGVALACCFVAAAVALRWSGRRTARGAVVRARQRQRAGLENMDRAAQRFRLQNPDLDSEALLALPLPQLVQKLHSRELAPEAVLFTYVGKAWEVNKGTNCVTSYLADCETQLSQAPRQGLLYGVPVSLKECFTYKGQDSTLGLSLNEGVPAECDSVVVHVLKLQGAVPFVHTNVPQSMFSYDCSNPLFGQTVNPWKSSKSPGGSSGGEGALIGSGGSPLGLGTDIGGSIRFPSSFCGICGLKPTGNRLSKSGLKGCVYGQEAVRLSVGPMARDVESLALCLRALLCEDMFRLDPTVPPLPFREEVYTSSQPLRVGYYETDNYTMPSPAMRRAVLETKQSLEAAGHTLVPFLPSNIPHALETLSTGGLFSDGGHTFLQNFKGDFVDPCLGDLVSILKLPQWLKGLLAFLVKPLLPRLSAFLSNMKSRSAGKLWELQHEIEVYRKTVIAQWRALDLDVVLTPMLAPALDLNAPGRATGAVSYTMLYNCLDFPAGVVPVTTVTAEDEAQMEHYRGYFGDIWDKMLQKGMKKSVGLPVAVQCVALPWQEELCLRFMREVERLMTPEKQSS
Procedure, shortened: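 Homogenate of SK-N-MC cells stably expressing human FAAH (G418-selected clones) incubated with compound and 80 nM [1-3H-ethanolamine]anandamide for 1 h at rt. Released 3H-ethanolamine separated from substrate by activated-charcoal filtration, then counted by scintillation.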

rat FAAH = target: T2, rat FAAH (Rattus norvegicus, UniProt P97612); assay: Assay Method 2: FAAH assay, hydrolysis of 3H-anandamide by homogenate of SK-N-MC cells transfected with rat FAAH; format: biochemical; details: T84 or transfected SK-N-MC cell homogenate, 3H-AEA tracer 80 nM, rt 1 h, pH 9
T2 construct: expressed in transfected cells
T2 sequence (P97612 1-579): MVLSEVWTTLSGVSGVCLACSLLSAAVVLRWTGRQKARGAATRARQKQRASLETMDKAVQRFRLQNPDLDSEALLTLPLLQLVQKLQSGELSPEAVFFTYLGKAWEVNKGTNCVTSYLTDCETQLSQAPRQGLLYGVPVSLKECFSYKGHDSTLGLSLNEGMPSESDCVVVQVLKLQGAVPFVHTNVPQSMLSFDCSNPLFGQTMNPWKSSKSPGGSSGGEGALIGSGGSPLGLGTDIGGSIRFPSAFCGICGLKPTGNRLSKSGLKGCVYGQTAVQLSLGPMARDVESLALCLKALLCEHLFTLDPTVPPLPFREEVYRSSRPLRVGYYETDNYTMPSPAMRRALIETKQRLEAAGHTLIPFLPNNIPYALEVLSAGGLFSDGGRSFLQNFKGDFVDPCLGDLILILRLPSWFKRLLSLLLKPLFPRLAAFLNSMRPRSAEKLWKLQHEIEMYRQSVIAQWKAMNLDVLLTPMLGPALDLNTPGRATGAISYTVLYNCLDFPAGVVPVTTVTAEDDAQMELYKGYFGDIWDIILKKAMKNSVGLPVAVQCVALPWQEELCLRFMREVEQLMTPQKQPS
Procedure, shortened: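 Rat FAAH activity from homogenate of G418-selected, electroporated SK-N-MC clones was measured as release of radiolabelled ethanolamine from 3H-anandamide. After 1 h at rt, charcoal filtration retained substrate, and scintillation counting of the flow-through gave the read-out.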

Row | IC50 (human FAAH) | IC50 (rat FAAH) | Structure (SMILES)
1 | 52 nM | 950 nM | CC(C)c1ccc(CN2CCC(CCCC(=O)c3ncco3)CC2)cn1 [Example 132, 4-[1-(6-Isopropyl-pyridin-3-ylmethyl)-piperidin-4-yl]-1-oxazol-2-yl-butan-1-one]
2 | 460 nM | 2000 nM | O=C(CCCC1CCN(Cc2ccc(Cl)c(C(F)(F)F)c2)CC1)c1ncco1 [Example 133, 4-[1-(4-Chloro-3-trifluoromethyl-benzyl)-piperidin-4-yl]-1-oxazol-2-yl-butan-1-one]
3 | 119 nM | 119 nM | O=C(CCCC1CCN(Cc2ccc(OC3CCCCC3)cc2)CC1)c1ncco1 [Example 134, 4-[1-(4-Cyclohexyloxy-benzyl)-piperidin-4-yl]-1-oxazol-2-yl-butan-1-one]
4 | 1 nM | 2 nM | O=C(CCCC1CCN(Cc2cccc(OC3CCCCC3)c2)CC1)c1ncco1 [Example 136, 4-[1-(3-Cyclohexyloxy-benzyl)-piperidin-4-yl]-1-oxazol-2-yl-butan-1-one]
5 | 10 nM | 380 nM | O=C(CCCC1CCN(Cc2ccc(C(F)(F)F)c(F)c2)CC1)c1ncco1 [Example 137, 4-[1-(3-Fluoro-4-trifluoromethyl-benzyl)-piperidin-4-yl]-1-oxazol-2-yl-butan-1-one]
6 | 71 nM | 113 nM | O=C(CCCC1CCN(Cc2ccc(-c3ccccc3)c(F)c2)CC1)c1ncco1 [Example 138, 4-[1-(2-Fluoro-biphenyl-4-ylmethyl)-piperidin-4-yl]-1-oxazol-2-yl-butan-1-one]
7 | 50 nM | 550 nM | CC(C)(C)c1ccc(CN2CCC(CCCC(=O)c3ncco3)CC2)cn1 [Example 139, 4-[1-(6-tert-Butyl-pyridin-3-ylmethyl)-piperidin-4-yl]-1-oxazol-2-yl-butan-1-one]
8 | 84 nM | 1500 nM | O=C(CCCC1CCN(Cc2ccc(-n3ccnc3)cc2)CC1)c1ncco1 [Example 141, 4-[1-(4-Imidazol-1-yl-benzyl)-piperidin-4-yl]-1-oxazol-2-yl-butan-1-one]
9 | 190 nM | 3000 nM | CC(c1ccccc1)N1CCC(CCCC(=O)c2ncco2)CC1 (stereo not shown) [Example 142, 1-Oxazol-2-yl-4-[1-(1-phenyl-ethyl)-piperidin-4-yl]-butan-1-one]
10 | 14 nM | 3 nM | O=C(O)c1cnc(C(=O)CCCC2CCN(Cc3cccc(-c4ccccc4)c3)CC2)o1 [Example 143, 2-[4-(1-Biphenyl-3-ylmethyl-piperidin-4-yl)-butyryl]-oxazole-5-carboxylic acid trifluoroacetic acid salt]
11 | 75 nM | 17 nM | CC(C)c1ccc(CN2CCC(CCCC(=O)c3ncc(C(=O)O)o3)CC2)cc1 [Example 144, 2-{4-[1-(4-Isopropyl-benzyl)-piperidin-4-yl]-butyryl}-oxazole-5-carboxylic acid trifluoroacetic acid salt]
12 | 6 nM | 3 nM | O=C(O)c1cnc(C(=O)CCCC2CCN(Cc3cccc(Oc4ccccc4)c3)CC2)o1 [Example 145, 2-{4-[1-(3-Phenoxy-benzyl)-piperidin-4-yl]-butyryl}-oxazole-5-carboxylic acid trifluoroacetic acid salt]
13 | 26 nM | 14 nM | Cc1ccc(S(=O)(=O)N2CCC(CCCC(=O)c3ncc(C(=O)O)o3)CC2)cc1 [Example 146]
14 | 18 nM | 8 nM | COC(=O)c1cccc(-c2cnc(C(=O)CCCC3CCN(Cc4ccc(C(C)C)cc4)CC3)o2)n1 [Example 147, 6-(2-[4-{1-(4-Isopropyl-benzyl)-piperidin-4-yl]-butyryl}-oxazol-5-yl)-pyridine-2-carboxylic acid methyl ester]
15 | 60 nM | 56 nM | CC(C)c1ccc(CN2CCC(CCCC(=O)c3ncc(-c4cccc(C(=O)O)n4)o3)CC2)cc1 [Example 148, 6-(2-{4-[1-(4-isopropyl-benzyl)-piperidin-4-yl]-butyryl}-oxazol-5-yl)-pyridine-2-carboxylic acid trifluoroacetic acid salt]
16 | 9 nM | 2 nM | O=C(O)c1cccc(-c2cnc(C(=O)CCCC3CCN(Cc4cccc(-c5ccccc5)c4)CC3)o2)n1 [Example 149, 6-{2-[4-(1-Biphenyl-3-ylmethyl-piperidin-4-yl)-butyryl]-oxazol-5-yl}-pyridine-2-carboxylic acid trifluoroacetic acid salt]
17 | 16 nM | 7 nM | O=C(O)c1cccc(-c2cnc(C(=O)CCCC3CCN(Cc4cccc(OC5CCCCC5)c4)CC3)o2)n1 [Example 150, 6-(2-{4-[1-(3-Cyclohexyloxy-benzyl)-piperidin-4-yl]-butyryl}-oxazol-5-yl)-pyridine-2-carboxylic acid trifluoroacetic acid salt]
18 | 21 nM | 25 nM | Cc1ccc(S(=O)(=O)N2CCC(CCCC(=O)c3ncc(-c4cccc(C(=O)O)n4)o3)CC2)cc1 [Example 151, 6-(2-{4-[1-(Toluene-4-sulfonyl)-piperidin-4-yl]-butyryl}-oxazol-5-yl)-pyridine-2-carboxylic acid trifluoroacetic acid salt]

Row | Structure (SMILES) | IC50 (human FAAH) | IC50 (rat FAAH)
19 | CC(C)Oc1cccc(CN2CCC(CCCC(=O)c3ncco3)CC2)c1 [Example 135, 4-[1-(3-Isopropoxy-benzyl)-piperidin-4-yl]-1-oxazol-2-yl-butan-1-one] | 5 nM | 9 nM
20 | CC(C)c1cccc(CN2CCC(CCCC(=O)c3ncco3)CC2)c1 [Example 140, 4-[1-(3-Isopropyl-benzyl)-piperidin-4-yl]-1-oxazol-2-yl-butan-1-one] | 1 nM | 3 nM

— US20090111778A1, “2-Keto-Oxazoles as Modulators of Fatty Acid Amide Hydrolase” (priority 2005, published 2009)
